Article PMC12691695, “Functional insight into cyclin-dependent kinase (CDK)7 via chemical inhibition of the priority fungal pathogen Cryptococcus neoformans” (mBio, 2025)

Target: T1, CnCDK7; pulled-down CAK complex (CnCAK: CDK7-CycH-Mat1) (Cryptococcus neoformans, UniProt J9W126)
T1 construct: gene CNAG_06445; native trimeric CAK complex pulled down on mNeonGreen-Trap beads from C. neoformans; CDK7 tagged with mNeonGreen, CycH with V5, Mat1 with 6xHis; with Cyclin H
T1 sequence (J9W126 1-358): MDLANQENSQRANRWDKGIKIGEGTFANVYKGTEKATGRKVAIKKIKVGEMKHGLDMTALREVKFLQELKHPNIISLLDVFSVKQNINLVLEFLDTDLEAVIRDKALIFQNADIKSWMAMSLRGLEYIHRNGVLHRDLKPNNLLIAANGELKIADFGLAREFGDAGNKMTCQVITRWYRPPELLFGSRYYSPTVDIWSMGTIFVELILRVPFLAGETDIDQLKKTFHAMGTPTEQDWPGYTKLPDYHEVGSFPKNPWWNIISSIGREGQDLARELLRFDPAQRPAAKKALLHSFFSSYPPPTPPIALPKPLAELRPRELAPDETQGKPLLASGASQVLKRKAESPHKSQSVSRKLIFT
T1 sequence (J9VUP1 1-447 partner): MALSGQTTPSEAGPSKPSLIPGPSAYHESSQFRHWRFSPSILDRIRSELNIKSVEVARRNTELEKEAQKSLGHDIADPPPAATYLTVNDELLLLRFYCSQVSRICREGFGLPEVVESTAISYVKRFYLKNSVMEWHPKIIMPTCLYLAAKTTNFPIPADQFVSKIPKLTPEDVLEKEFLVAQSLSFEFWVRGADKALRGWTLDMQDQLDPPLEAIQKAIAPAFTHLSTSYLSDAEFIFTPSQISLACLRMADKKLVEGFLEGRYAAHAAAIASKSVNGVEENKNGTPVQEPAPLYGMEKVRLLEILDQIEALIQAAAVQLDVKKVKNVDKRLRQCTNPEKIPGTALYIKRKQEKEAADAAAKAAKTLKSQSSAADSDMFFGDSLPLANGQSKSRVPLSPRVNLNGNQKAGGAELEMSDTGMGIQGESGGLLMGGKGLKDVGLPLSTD
T1 sequence (J9VS06 1-372 partner): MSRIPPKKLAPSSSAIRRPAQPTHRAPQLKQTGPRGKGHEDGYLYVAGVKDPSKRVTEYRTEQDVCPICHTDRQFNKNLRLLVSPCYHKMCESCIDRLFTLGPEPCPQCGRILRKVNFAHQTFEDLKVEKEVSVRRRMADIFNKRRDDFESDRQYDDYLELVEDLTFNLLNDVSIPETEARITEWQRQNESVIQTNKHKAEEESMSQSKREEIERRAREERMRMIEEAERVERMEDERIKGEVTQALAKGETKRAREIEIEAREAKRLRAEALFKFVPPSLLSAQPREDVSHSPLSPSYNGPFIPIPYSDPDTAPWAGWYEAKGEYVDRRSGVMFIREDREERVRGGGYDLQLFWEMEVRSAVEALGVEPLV
Experiment: Kinase-Glo ATP consumption, pulled-down CAK, […] min
Format: biochemical
Settings: co-substrate 250 µM CDK7/9tide; 20 mM MgCl2, pH 7.5, room temperature; bead-bound complex

Nc1ncnc2c1ncn2[C@@H]1O[C@H](COP(=O)(O)OP(=O)(O)OP(=O)(O)O)[C@@H](O)[C@H]1O [ATP]
Kinase-Glo ATP consumption, pulled-down CAK, 300 min: ATP consumption (due to the phosphorylation of the peptide substrate by CDK7)
